Results: PMC8019204 (Cancer Science, 2021)

Assay: GEOMETRY mono-1: safety
Type: in vivo, human

CNC(=O)c1ccc(-c2cnc3ncc(Cc4ccc5ncccc5c4)n3n2)cc1F [capmatinib, Capmatinib]
Treatment‐related AE: Nausea (45 Japanese patients): 35.6%
Treatment‐related AE: Oedema peripheral (45 Japanese patients): 31.1%
Treatment‐related AE: blood creatinine increased (45 Japanese patients): 53.3%
Capmatinib interrupted due to AEs (METΔex14 1L group (n = 2)): both
Discontinuation from treatment phase, reason: Adverse event (METΔex14 1L group (n = 2)): 1 (50.0) n (%) of patients
Capmatinib interrupted due to AEs (METΔex14 2/3L group (n = 11)): 10 patients
Discontinuation from treatment phase, reason: Adverse event (METΔex14 2/3L group (n = 11)): 3 (27.3) n (%) of patients
Dose reductions due to AEs (METΔex14 2/3L group (n = 11)): eight
AEs leading to permanent discontinuation (all patients (n = 45)): 8 (17.8) n (%) of patients
AEs requiring dose adjustment/interruption (all patients (n = 45)): 30 (66.7) n (%) of patients
Any AE (all patients (n = 45)): 45 (100.0) n (%) of patients
Any grade 3/4 AE (all patients (n = 45)): 33 (73.3) n (%) of patients
Any grade 3/4 serious AE (all patients (n = 45)): 18 (40.0) n (%) of patients
Any serious AE (all patients (n = 45)): 22 (48.9) n (%) of patients
Any treatment‐related grade 3/4 serious AE (all patients (n = 45)): 9 (20.0) n (%) of patients
Any treatment‐related serious AE (all patients (n = 45)): 12 (26.7) n (%) of patients
Grade 3/4 AEs leading to permanent discontinuation (all patients (n = 45)): 4 (8.9) n (%) of patients
Grade 3/4 AEs requiring dose adjustment/interruption (all patients (n = 45)): 22 (48.9) n (%) of patients
Any grade 3/4 treatment‐related AE (all patients (n = 45), Table 4): 25 (55.6) n (%) of patients
Any treatment‐related AE (all patients (n = 45), Table 4): 44 (97.8) n (%) of patients
Deaths (all patients (n = 45), considered related to NSCLC): 1 (2.2) n (%) of patients
Treatment‐related AE (investigations): ALT increased (any grade, n = 45): 6 (13.3) n (%) of patients
Treatment‐related AE (investigations): AST increased (any grade, n = 45): 6 (13.3) n (%) of patients
Treatment‐related AE (investigations): Amylase increased (any grade, n = 45): 8 (17.8) n (%) of patients
Treatment‐related AE (investigations): Blood ALP increased (any grade, n = 45): 4 (8.9) n (%) of patients
Treatment‐related AE (investigations): Blood creatinine increased (any grade, n = 45): 24 (53.3) n (%) of patients
Treatment‐related AE (investigations): Lipase increased (any grade, n = 45): 6 (13.3) n (%) of patients
Treatment‐related AE (investigations): Neutrophil count decreased (any grade, n = 45): 5 (11.1) n (%) of patients
Treatment‐related AE (investigations): Platelet count decreased (any grade, n = 45): 8 (17.8) n (%) of patients
Treatment‐related AE (investigations): WBC count decreased (any grade, n = 45): 4 (8.9) n (%) of patients
Treatment‐related AE (investigations): γGT increased (any grade, n = 45): 3 (6.7) n (%) of patients
Treatment‐related AE: Anaemia (any grade, n = 45): 3 (6.7) n (%) of patients
Treatment‐related AE: Cellulitis (any grade, n = 45): 3 (6.7) n (%) of patients
Treatment‐related AE: Constipation (any grade, n = 45): 5 (11.1) n (%) of patients
Treatment‐related AE: Decreased appetite (any grade, n = 45): 10 (22.2) n (%) of patients
Treatment‐related AE: Diarrhoea (any grade, n = 45): 8 (17.8) n (%) of patients
Treatment‐related AE: Dry skin (any grade, n = 45): 4 (8.9) n (%) of patients
Treatment‐related AE: Fatigue (any grade, n = 45): 4 (8.9) n (%) of patients
Treatment‐related AE: Headache (any grade, n = 45): 3 (6.7) n (%) of patients
Treatment‐related AE: Hypoalbuminaemia (any grade, n = 45): 4 (8.9) n (%) of patients
Treatment‐related AE: Malaise (any grade, n = 45): 3 (6.7) n (%) of patients
Treatment‐related AE: Nausea (any grade, n = 45): 16 (35.6) n (%) of patients
Treatment‐related AE: Oedema peripheral (any grade, n = 45): 14 (31.1) n (%) of patients
Treatment‐related AE: Pyrexia (any grade, n = 45): 7 (15.6) n (%) of patients
Treatment‐related AE: Rash (any grade, n = 45): 5 (11.1) n (%) of patients
Treatment‐related AE: Vomiting (any grade, n = 45): 12 (26.7) n (%) of patients
Any treatment‐related AE (any grade, n = 45, Table 5): 44 (97.8) n (%) of patients
Treatment‐related AE (investigations): ALT increased (grade 3/4, n = 45): 2 (4.4) n (%) of patients
Treatment‐related AE (investigations): AST increased (grade 3/4, n = 45): 2 (4.4) n (%) of patients
Treatment‐related AE (investigations): Amylase increased (grade 3/4, n = 45): 2 (4.4) n (%) of patients
Treatment‐related AE (investigations): Blood ALP increased (grade 3/4, n = 45): 0 n (%) of patients
Treatment‐related AE (investigations): Blood creatinine increased (grade 3/4, n = 45): 0 n (%) of patients
Treatment‐related AE (investigations): Lipase increased (grade 3/4, n = 45): 3 (6.7) n (%) of patients
Treatment‐related AE (investigations): Neutrophil count decreased (grade 3/4, n = 45): 3 (6.7) n (%) of patients
Treatment‐related AE (investigations): Platelet count decreased (grade 3/4, n = 45): 2 (4.4) n (%) of patients
Treatment‐related AE (investigations): WBC count decreased (grade 3/4, n = 45): 1 (2.2) n (%) of patients
Treatment‐related AE (investigations): γGT increased (grade 3/4, n = 45): 1 (2.2) n (%) of patients
Treatment‐related AE: Anaemia (grade 3/4, n = 45): 1 (2.2) n (%) of patients
Treatment‐related AE: Cellulitis (grade 3/4, n = 45): 1 (2.2) n (%) of patients
Treatment‐related AE: Constipation (grade 3/4, n = 45): 1 (2.2) n (%) of patients
Treatment‐related AE: Decreased appetite (grade 3/4, n = 45): 2 (4.4) n (%) of patients
Treatment‐related AE: Diarrhoea (grade 3/4, n = 45): 1 (2.2) n (%) of patients
Treatment‐related AE: Dry skin (grade 3/4, n = 45): 0 n (%) of patients
Treatment‐related AE: Fatigue (grade 3/4, n = 45): 0 n (%) of patients
